According to patent publication US20120122931A1, “INDOLE DERIVATIVE OR PHARMACEUTICALLY ACCEPTABLE SALT THEREOF” (KISSEI PHARMACEUTICAL CO., LTD., priority 2009, published 2012):

Target: T1, rat EP1 receptor (Rattus norvegicus, UniProt P70597)
T1 construct: expressed in transfected cells; host or cells: COS-1 cells, transient transfection with Lipofectamine 2000
T1 sequence (P70597 1-405): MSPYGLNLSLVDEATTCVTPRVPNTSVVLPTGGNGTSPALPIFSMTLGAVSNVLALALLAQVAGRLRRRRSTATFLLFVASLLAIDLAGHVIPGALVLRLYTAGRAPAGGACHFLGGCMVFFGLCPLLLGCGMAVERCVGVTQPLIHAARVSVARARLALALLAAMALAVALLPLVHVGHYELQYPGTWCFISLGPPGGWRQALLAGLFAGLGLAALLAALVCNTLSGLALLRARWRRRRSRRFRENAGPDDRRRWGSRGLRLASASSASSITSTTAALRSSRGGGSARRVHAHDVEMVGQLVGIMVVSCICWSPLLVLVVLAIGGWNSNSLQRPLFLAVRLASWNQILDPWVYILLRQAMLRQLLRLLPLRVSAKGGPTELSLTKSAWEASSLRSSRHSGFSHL
Experiment: Test for confirmation of EP1 receptor antagonism: inhibition of prostaglandin E2-induced increase in intracellular calcium concentration (Method A or Method B)
Assay type: cell-based
Details: Method A (Fluo-4 NW, FlexStation); rat EP1 receptor-expressing cells; prostaglandin E2 10 nM
Procedure: (1) Preparation of Rat EP1 Expression vector
Using Rat Kidney BD Marathon-Ready cDNA (Nippon Becton Dickinson Company, Ltd.) as a template, a forward primer shown in SEQ ID NO. 1, and a reverse primer shown in SEQ ID NO. 2, a first run of PCR was carried out using KOD-Plus-Ver 2.0 (Toyobo Co., Ltd.). Further, using this amplification product as a template, a forward primer shown in SEQ ID NO. 3, and a reverse primer shown in SEQ ID NO. 4, a second run of PCR was carried out in the same manner. The amplification product obtained by the second run of PCR was incorporated into a vector (pcDNA3.1 D/V5-His-TOPO (registered trademark), Invitrogen Japan K. K.). By a conventional method, the vector containing this amplification product was introduced to E. coli (One Shot TOP10 Competent Cells, Invitrogen Corporation) to transform. This transformed E. coli was cultured in an LB agar medium for one day. After the culture, colonies were selected and cultured in an LB liquid medium containing 50 μg/mL of ampicillin. After the culture, the vector was purified using a QIAprep Spin Miniprep Kit (Qiagen K. K.). The base sequence of the insertion site of this vector (SEQ ID NO. 5) was compared with the rat EP1 base sequence (Ptger1) registered as an accession number NM_013100 in well-known database (NCBI), and as a result, they all matched except for a single base. Further, the amino acid sequence translated by the base sequence completely matched the amino acid sequence of the rat EP1 receptor registered as an NCBI accession number NP_037232. Therefore, it was confirmed that the cloned gene sequence was a base sequence of the rat EP1 receptor and the obtained amino acid sequence was that of the rat EP1 receptor. The pcDNA3.1 D/V5-His-TOPO (registered trademark) to which the nucleic acid shown in SEQ ID NO. 5 had been inserted was taken as a rat EP1-expressing vector.
(2) Preparation of Rat EP1 Receptor-Expressing Cells
COS-1 cells (Dainippon Sumitomo Pharma Co., Ltd.) were cultured until it reached confluence in an incubator at 37° C. under a 5% CO2 gas condition, using a D-MEM liquid medium (high glucose and L-glutamine contained, Invitrogen Corporation) to which a penicillin-streptomycin solution (Invitrogen Corporation, final concentration: 100 U/mL as benzylpenicillin; 100 μg/mL as streptomycin) as an antibiotic, MEM nonessential amino acids (Invitrogen Corporation, final Concentration: 0.1 mM), and fetal calf serum (Sanko Junyaku Co., Ltd., final concentration: 10%) were added.
(2-2) COS-1 Cell Subculture
The cells that had reached confluence were stripped with 0.05% trypsin/0.53 mM EDTA 4Na (Invitrogen Japan K. K.) and resuspended in the above liquid medium. The resuspended cells were diluted and cultured in the above liquid medium at a spread ratio from 1:4 to 1:8.
(2-3) Preparation of Cells for Introduction of Rat EP1-Expressing Vector
The cells that had reached confluence were stripped with 0.05% trypsin/0.53 mM EDTA.4Na, and resuspended in a D-MEM liquid medium (high glucose and L-glutamine contained, Invitrogen Corporation) to which an MEM nonessential amino acid (final concentration: 0.1 mM) and fetal calf serum (final concentration: 10%) were added. In each well of a Poly D-lysine-coated 96-well microplate (BD BioCoat (registered trademark), Nippon Becton Dickinson Company, Ltd.), this resuspended cell suspension culture was prepared to be 5×10^4 cells/well in 100 μL of the liquid medium, and seeded thereon. After seeding, the cells were cultured in an incubator at 37° C. under a 5% CO2 gas condition. At a point when the cells for introduction of a rat EP1-expressing vector were adhered (about 2 hours after seeding), introduction of the rat EP1-expressing vector was carried out in the following order.
(2-4) Introduction of Rat EP1-Expressing Vector
For introduction of the rat EP1-expressing vector, Lipofectamine 2000 (Invitrogen Japan K. K.) was used. […]

Compound | IC50
COc1ccc2c(Cc3cccc(C(=O)O)c3)c(-c3ccsc3)[nH]c2c1 [Example 4-12, 3-(6-methoxy-2-thiophen-3-yl-1H-indol-3-ylmethyl)benzoic acid] | 40 nM
O=C(O)c1cccc(Cc2c(-c3ccccc3)[nH]c3cc(Cl)ccc23)n1 [Example 4-17, 6-(6-chloro-2-phenyl-1H-indol-3-ylmethyl)pyridine-2-carboxylic acid] | 15 nM
CCc1ccc2c(Cc3cccc(C(=O)O)n3)c(-c3ccccc3)[nH]c2c1 [Example 4-27] | 28 nM
CCOc1ccc2c(Cc3cccc(C(=O)O)n3)c(-c3ccccc3)[nH]c2c1 [Example 4-34, 6-(6-ethoxy-2-phenyl-1H-indol-3-ylmethyl)pyridine-2-carboxylic acid] | 44 nM
Cc1ccc2c(Cc3cccc(C(=O)O)n3)c(-c3ccccc3)[nH]c2c1 [Example 4-35, 6-(6-methyl-2-phenyl-1H-indol-3-ylmethyl)pyridine-2-carboxylic acid] | 18 nM

Now from value to compound:

IC50 | Compound
42 nM | O=C(O)c1cccc(Cc2c(-c3ccccc3)[nH]c3cc(C(F)(F)F)ccc23)n1 [Example 11-3]
23 nM | COc1ccc2c(Cc3cccc(C(=O)O)n3)c(-c3cccc(Cl)c3)[nH]c2c1 [Example 11-21, 6-[2-(3-chlorophenyl)-6-methoxy-1H-indol-3-ylmethyl]pyridine-2-carboxylic acid]

Same assay, conditions: Method B (Calcium kit II Fluo 4, FDSS 7000); rat EP1 receptor-expressing cells; prostaglandin E2 10 nM

Compound | IC50
CC(C)Cc1cn(-c2cccc(C(=O)O)n2)c2cc(Cl)ccc12 [Comparative Example, sodium 6-(6-chloro-3-isobutylindol-1-yl)pyridine-2-carboxylate, reference compound] | 476 nM
COc1ccc2c(Cc3cccc(C(=O)O)n3)c(-c3ccoc3)[nH]c2c1 [Example 11-10, 6-(2-furan-3-yl-6-methoxy-1H-indol-3-ylmethyl)pyridine-2-carboxylic acid] | 15 nM
COc1ccc2c(Cc3cccc(C(=O)O)n3)c(-c3cccnc3)[nH]c2c1 [Example 11-11, 6-(6-methoxy-2-pyridin-3-yl-1H-indol-3-ylmethyl)pyridine-2-carboxylic acid] | 32 nM
COc1ccc2c(Cc3cccc(C(=O)O)n3)c(-c3ccc(F)cc3)[nH]c2c1 [Example 11-13, 6-[2-(4-fluorophenyl)-6-methoxy-1H-indol-3-ylmethyl]pyridine-2-carboxylic acid] | 31 nM
COc1ccc2c(Cc3cccc(C(=O)O)c3)c(-c3ccoc3)[nH]c2c1 [Example 11-15, 3-(2-furan-3-yl-6-methoxy-1H-indol-3-ylmethyl)benzoic acid] | 48 nM
COc1ccc2c(Cc3cccc(C(=O)O)n3)c(-c3cccs3)[nH]c2c1 [Example 11-17, 6-(6-methoxy-2-thiophen-2-yl-1H-indol-3-ylmethyl)pyridine-2-carboxylic acid] | 50 nM
COc1ccc2c(Cc3cccc(C(=O)O)n3)c(-c3cncs3)[nH]c2c1 [Example 11-24, 6-(6-methoxy-2-thiazol-5-yl-1H-indol-3-ylmethyl)pyridine-2-carboxylic acid] | 41 nM
COc1cccc(-c2[nH]c3cc(OC)ccc3c2Cc2cccc(C(=O)O)n2)c1 [Example 11-34, 6-[6-methoxy-2-(3-methoxyphenyl)-1H-indol-3-ylmethyl]pyridine-2-carboxylic acid] | 36 nM
COc1ccc2c(Cc3nc(C(=O)O)cs3)c(-c3ccccc3)[nH]c2c1 [Example 11-37] | 50 nM
COc1ccc2c(Cc3cccc(C(=O)O)n3)c(-c3ccc(F)c(F)c3)[nH]c2c1 [Example 16-2, 6-[2-(3,4-difluorophenyl)-6-methoxy-1H-indol-3-ylmethyl]pyridine-2-carboxylic acid] | 23 nM
COc1ccc2c(Cc3cccc(C(=O)O)n3)c(-c3cc(F)c(F)c(F)c3)[nH]c2c1 [Example 16-6, 6-[6-methoxy-2-(3,4,5-trifluorophenyl)-1H-indol-3-ylmethyl]pyridine-2-carboxylic acid] | 44 nM
